Data reported in article PMC9250534, “Synthesis and direct assay of large macrocycle diversities by combinatorial late-stage modification at picomole scale” (Nature Communications, 2022).
Numbered stars: 1 amine (or outer) side, 2 acyl side, 3 side chain; on linkers, the order of the positions; unused ones are H or OH. Bridge positions count the residues as written; N and C are the ends. Square brackets hold non-standard residues; d marks the D form. Peptide text beside a SMILES is read from it. * marks the point of attachment. Pro(cis-4-NH-(E)-Cinnamoyl) = O=C(/C=C/c1ccccc1)N[C@@H]1CN[C@H](C(=O)O)C1; Isoxazole3carbonyl(5-Me) = Cc1cc(C(=O)*)no1; Benzoyl(4-OMe) = COc1ccc(C(=O)*)cc1; 2Thenoyl(5-Cl) = O=C(c1ccc(Cl)s1)*; Benzoyl(3-Cl) = O=C(c1cccc(Cl)c1)*; Benzoyl(4-Cl) = O=C(c1ccc(Cl)cc1)*; Cysteamide = C(CS[*:3])N[*:1]; X1 = O=C(/C=C/c1ccccc1)*; Api = NC1(C(=O)O)CCNCC1; Dap = NC[C@H](N)C(=O)O; X2 = O=C(C=Cc1ccccc1)*; Mpa = O=C(O)CCS

Target: MDM2 (Homo sapiens, UniProt Q00987)
Assay: MDM2 binding screen: displacement of fluorescent p53 peptide probe FP53 (fluorescence polarization)
Conditions: for fraction fluorescent probe displaced, Screen: initial screen; for fraction fluorescent probe displaced, Screen / fraction fluorescent probe displaced, Replicate: crude macrocycle reactions
In short: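 Macrocycle reaction products at a final 10 µM were tested for displacement of a p53-based fluorescent peptide from human MDM2. Fluorescence anisotropy (ex 485/em 535 nm) was read once per macrocycle at 25 °C.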

[1] = 10 µM macrocycle concentration, crude acylated macrocycle (scaffold Mpa-AA1-AA2-AA3 x carboxylic acid), p53-based fluorescent peptide, human MDM2

MDM2, sequence (Q00987 whole entry): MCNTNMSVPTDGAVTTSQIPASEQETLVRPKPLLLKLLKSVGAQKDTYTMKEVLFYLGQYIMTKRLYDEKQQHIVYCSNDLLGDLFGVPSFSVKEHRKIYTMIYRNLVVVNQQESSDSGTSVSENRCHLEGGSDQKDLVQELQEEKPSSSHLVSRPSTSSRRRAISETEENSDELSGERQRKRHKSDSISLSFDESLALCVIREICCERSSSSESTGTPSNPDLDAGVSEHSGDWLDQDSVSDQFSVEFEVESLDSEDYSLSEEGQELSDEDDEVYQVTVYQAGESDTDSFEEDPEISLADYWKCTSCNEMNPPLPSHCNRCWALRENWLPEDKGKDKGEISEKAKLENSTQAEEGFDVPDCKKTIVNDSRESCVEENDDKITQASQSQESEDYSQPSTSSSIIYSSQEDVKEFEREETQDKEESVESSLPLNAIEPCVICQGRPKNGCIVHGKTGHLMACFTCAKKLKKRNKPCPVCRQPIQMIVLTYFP

COc1ccc(C(=O)NC[C@@H]2NC(=O)[C@@H]3CCCN3C(=O)CCSSCCNC(=O)[C@H](Cc3ccccc3)NC2=O)cc1 [X-B1-D3-F + A71] ([Mpa]P[Dap](Benzoyl(4-OMe))F-Cysteamide; disulfide 1-C)
fraction fluorescent probe displaced [1]: -0.03153

O=C1CCSSCCNC(=O)C2(CCN(C(=O)c3ccc(Cl)cc3)CC2)NC(=O)CCNC(=O)[C@H](Cc2ccccc2)N1 [X F B2 D6 Acid 25]
fraction fluorescent probe displaced, Screen (Acid 25): -0.00813 | fraction fluorescent probe displaced, Replicate (Acid 25, replicate): -0.03

O=C(/C=C/c1ccccc1)NC[C@@H]1NC(=O)[C@H](Cc2c[nH]c3ccccc23)NC(=O)CCSSCCNC(=O)CCNC1=O [X W D3 B2 Acid 91]
fraction fluorescent probe displaced, Screen (Acid 91): 0.08 | fraction fluorescent probe displaced, Replicate (Acid 91, replicate): 0.04

O=C1NC2(CCN(C(=O)c3ccc(Cl)cc3)CC2)C(=O)N[C@@H](Cc2c[nH]c3ccccc23)C(=O)NCCSSCCC(=O)N2CCC[C@H]1C2 [X B4 D6 W Acid 25]
fraction fluorescent probe displaced, Screen (Acid 25): 0.38 | fraction fluorescent probe displaced, Replicate (Acid 25, replicate): 0.25

O=C(/C=C/c1ccccc1)N[C@H]1C[C@H]2C(=O)N3CCC[C@H]3C(=O)N[C@@H](Cc3c[nH]c4ccccc34)C(=O)NCCSSCCC(=O)N2C1 [X D5 B1 W Acid 91] ([Mpa][Pro(cis-4-NH-(E)-Cinnamoyl)]PW-Cysteamide; disulfide 1-C)
fraction fluorescent probe displaced, Screen (Acid 91): 0.03 | fraction fluorescent probe displaced, Replicate (Acid 91, replicate): 0.07

O=C1CCSSCCNC(=O)c2cccc(c2)CNC(=O)[C@H](Cc2c[nH]c3ccccc23)NC(=O)[C@H](CNC(=O)c2ccc(Cl)cc2)N1 [X D3 W B5 Acid 25]
fraction fluorescent probe displaced, Screen (Acid 25): 0.35 | fraction fluorescent probe displaced, Replicate (Acid 25, replicate): 0.28

O=C1CCSSCCNC(=O)C2CN(C(=O)c3ccc(Cl)s3)CCN2C(=O)C2CCCN(C2)C(=O)C(Cc2c[nH]c3ccccc23)N1 (centres unmarked) [X W B4 D7 Acid 14]
fraction fluorescent probe displaced, Screen (Acid 14): 0.34 | fraction fluorescent probe displaced, Replicate (Acid 14, replicate): 0.33

O=C1CCSSCCNC(=O)[C@@H]2CCCN2C(=O)C2(CCN(C(=O)c3ccc(Cl)s3)CC2)NC(=O)[C@H](Cc2c[nH]c3ccccc23)N1 [X W D6 B1 Acid 14] ([Mpa]W[Api](2Thenoyl(5-Cl))P-Cysteamide; disulfide 1-C)
fraction fluorescent probe displaced, Screen (Acid 14): 0.14 | fraction fluorescent probe displaced, Replicate (Acid 14, replicate): 0.17

O=C(C=Cc1ccccc1)NCC1NC(=O)CCSSCCNC(=O)C(Cc2c[nH]c3ccccc23)NC(=O)C2CCCN(C2)C1=O (centres unmarked) [X D3 B4 W Acid 91]
fraction fluorescent probe displaced, Screen (Acid 91): 0.11 | fraction fluorescent probe displaced, Replicate (Acid 91, replicate): 0.09

O=C1CCSSCCNC(=O)C2CN(C(=O)C=Cc3ccccc3)CCN2C(=O)c2cccc(c2)CNC(=O)C(Cc2c[nH]c3ccccc23)N1 (centres unmarked) [X W B5 D7 Acid 91]
fraction fluorescent probe displaced, Screen (Acid 91): 0.16 | fraction fluorescent probe displaced, Replicate (Acid 91, replicate): 0.0168

O=C1NCCSSCCC(=O)N2CC(NC(=O)c3ccc(Cl)s3)CC2C(=O)NC(Cc2ccccc2)C(=O)NCc2cccc1c2 (centres unmarked) [X D5 F B5 Acid 14]
fraction fluorescent probe displaced, Screen (Acid 14): 0.11 | fraction fluorescent probe displaced, Replicate (Acid 14, replicate): -0.03

O=C1CCSSCCNC(=O)[C@H]2CCCN(C2)C(=O)[C@H](CNC(=O)c2ccc(Cl)s2)NC(=O)[C@H](Cc2ccccc2)N1 [X F D3 B4 Acid 14]
fraction fluorescent probe displaced, Screen (Acid 14): 0.053 | fraction fluorescent probe displaced, Replicate (Acid 14, replicate): 0.10

O=C1NC2(CCN(C(=O)c3ccc(Cl)s3)CC2)C(=O)N[C@@H](Cc2ccccc2)C(=O)NCCSSCCC(=O)N2CCC[C@H]1C2 [X B4 D6 F + Acid 14]
fraction fluorescent probe displaced (crude reaction of macrocycle scaffold with Acid 14, (initial screen)): 0.25 | fraction fluorescent probe displaced (crude reaction of macrocycle scaffold with Acid 14, replicate): 0.12

O=C1CCSSCCNC(=O)[C@H]2CCCN(C2)C(=O)[C@H](CNC(=O)c2ccc(Cl)cc2)NC(=O)[C@H](Cc2c[nH]c3ccccc23)N1 [X W D3 B4 Acid 25]
fraction fluorescent probe displaced, Screen (Acid 25): 0.28 | fraction fluorescent probe displaced, Replicate (Acid 25, replicate): 0.12

O=C1NC(Cc2c[nH]c3ccccc23)C(=O)NCCSSCCC(=O)N2CCN(C(=O)C=Cc3ccccc3)CC2C(=O)N2CCCC1C2 (centres unmarked) [X D7 B4 W Acid 91]
fraction fluorescent probe displaced, Screen (Acid 91): 0.08 | fraction fluorescent probe displaced, Replicate (Acid 91, replicate): 0.07

O=C(NC1CC2C(=O)NCCSSCCC(=O)N3CCCC(C3)C(=O)NC(Cc3c[nH]c4ccccc34)C(=O)N2C1)c1ccc(Cl)cc1 (centres unmarked) [X B4 W D5 Acid 25]
fraction fluorescent probe displaced, Screen (Acid 25): 0.15 | fraction fluorescent probe displaced, Replicate (Acid 25, replicate): 0.20

O=C1CCSSCCNC(=O)C2(CCN(C(=O)c3ccc(Cl)cc3)CC2)NC(=O)[C@H](Cc2c[nH]c3ccccc23)NC(=O)CCN1 [X B2 W D6 Acid 25]
fraction fluorescent probe displaced, Screen (Acid 25): 0.0244 | fraction fluorescent probe displaced, Replicate (Acid 25, replicate): 0.0211

O=C1CCSSCCNC(=O)C2CCCN2C(=O)C2(CCN(C(=O)C=Cc3ccccc3)CC2)NC(=O)C(Cc2ccccc2)N1 (centres unmarked) [X F D6 B1 Acid 91] ([Mpa]F[Api](X2)P-Cysteamide; disulfide 1-C; configuration not given here)
fraction fluorescent probe displaced, Screen (Acid 91): -0.08 | fraction fluorescent probe displaced, Replicate (Acid 91, replicate): 0.04

O=C1CCSSCCNC(=O)C2(CCN(C(=O)c3ccc(Cl)cc3)CC2)NC(=O)C2CCCN(C2)C(=O)C(Cc2ccccc2)N1 (centres unmarked) [X F B4 D6 Acid 25]
fraction fluorescent probe displaced, Screen (Acid 25): 0.15 | fraction fluorescent probe displaced, Replicate (Acid 25, replicate): 0.07

O=C1CCSSCCNC(=O)C2CN(C(=O)C=Cc3ccccc3)CCN2C(=O)C(Cc2c[nH]c3ccccc23)NC(=O)c2cccc(c2)CN1 (centres unmarked) [X B5 W D7 Acid 91]
fraction fluorescent probe displaced, Screen (Acid 91): 0.03 | fraction fluorescent probe displaced, Replicate (Acid 91, replicate): -0.00827

O=C1CCNC(=O)C2(CCN(C(=O)c3ccc(Cl)s3)CC2)NC(=O)CCSSCCNC(=O)[C@H](Cc2ccccc2)N1 [X D6 B2 F Acid 14]
fraction fluorescent probe displaced, Screen (Acid 14): 0.08 | fraction fluorescent probe displaced, Replicate (Acid 14, replicate): 0.0465

O=C1CCNC(=O)C(Cc2ccccc2)NC(=O)C2CN(C(=O)c3ccc(Cl)cc3)CCN2C(=O)CCSSCCN1 (centres unmarked) [X D7 F B2 Acid 25]
fraction fluorescent probe displaced, Screen (Acid 25): -0.00813 | fraction fluorescent probe displaced, Replicate (Acid 25, replicate): 0.07

O=C1NC2(CCN(C(=O)/C=C/c3ccccc3)CC2)C(=O)NCCSSCCC(=O)N2CCC[C@H]2C(=O)N[C@H]1Cc1c[nH]c2ccccc12 [X B1 W D6 Acid 91] ([Mpa]PW[Api](X1)-Cysteamide; disulfide 1-C)
fraction fluorescent probe displaced, Screen (Acid 91): 0.14 | fraction fluorescent probe displaced, Replicate (Acid 91, replicate): 0.07

O=C1NCCSSCCC(=O)N2CCN(C(=O)c3ccc(Cl)cc3)CC2C(=O)NC(Cc2ccccc2)C(=O)NCc2cccc1c2 (centres unmarked) [X D7 F B5 Acid 25]
fraction fluorescent probe displaced, Screen (Acid 25): 0.12 | fraction fluorescent probe displaced, Replicate (Acid 25, replicate): 0.43

Cc1cc(C(=O)NC[C@@H]2NC(=O)[C@@H]3CCCN3C(=O)CCSSCCNC(=O)[C@H](Cc3ccccc3)NC2=O)no1 [X-B1-D3-F + A3] ([Mpa]P[Dap](Isoxazole3carbonyl(5-Me))F-Cysteamide; disulfide 1-C)
fraction fluorescent probe displaced [1]: 0.08125

O=C1CCSSCCNC(=O)[C@H](Cc2c[nH]c3ccccc23)NC(=O)[C@H](CNC(=O)c2ccc(Cl)cc2)NC(=O)CCN1 [X B2 D3 W Acid 25]
fraction fluorescent probe displaced, Screen (Acid 25): 0.19 | fraction fluorescent probe displaced, Replicate (Acid 25, replicate): 0.22

O=C(NC[C@@H]1NC(=O)[C@@H]2CCCN2C(=O)CCSSCCNC(=O)[C@H](Cc2c[nH]c3ccccc23)NC1=O)c1ccc(Cl)s1 [X-B1-D3-W + A14] ([Mpa]P[Dap](2Thenoyl(5-Cl))W-Cysteamide; disulfide 1-C)
fraction fluorescent probe displaced [1]: 0.1687

O=C1CCSSCCNC(=O)C2(CCN(C(=O)c3ccc(Cl)s3)CC2)NC(=O)CCNC(=O)C(Cc2ccccc2)N1 (centres unmarked) [X F B2 D6 Acid 14]
fraction fluorescent probe displaced, Screen (Acid 14): 0.20 | fraction fluorescent probe displaced, Replicate (Acid 14, replicate): 0.0465

O=C1CCSSCCNC(=O)[C@H]2CCCN(C2)C(=O)[C@H](Cc2c[nH]c3ccccc23)NC(=O)C2(CCN(C(=O)c3ccc(Cl)cc3)CC2)N1 [X D6 W B4 Acid 25]
fraction fluorescent probe displaced, Screen (Acid 25): 0.28 | fraction fluorescent probe displaced, Replicate (Acid 25, replicate): 0.22

O=C(NC[C@@H]1NC(=O)[C@@H]2CCCN2C(=O)CCSSCCNC(=O)[C@H](Cc2c[nH]c3ccccc23)NC1=O)c1cccc(Cl)c1 [X-B1-D3-W + A17] ([Mpa]P[Dap](Benzoyl(3-Cl))W-Cysteamide; disulfide 1-C)
fraction fluorescent probe displaced [1]: 0.2671

O=C1CCSSCCNC(=O)C2CN(C(=O)C=Cc3ccccc3)CCN2C(=O)C2CCCN(C2)C(=O)C(Cc2ccccc2)N1 (centres unmarked) [X F B4 D7 Acid 91]
fraction fluorescent probe displaced, Screen (Acid 91): 0.0563 | fraction fluorescent probe displaced, Replicate (Acid 91, replicate): 0.0168

O=C1CCSSCCNC(=O)[C@H](CNC(=O)c2ccc(Cl)s2)NC(=O)[C@H](Cc2ccccc2)NC(=O)c2cccc(c2)CN1 [X B5 F D3 Acid 14]
fraction fluorescent probe displaced, Screen (Acid 14): 0.053 | fraction fluorescent probe displaced, Replicate (Acid 14, replicate): 0.0211

O=C1CCSSCCNC(=O)[C@@H]2CCCN2C(=O)[C@H](CNC(=O)c2ccc(Cl)cc2)NC(=O)[C@H](Cc2c[nH]c3ccccc23)N1 [X W D3 B1 Acid 25] ([Mpa]W[Dap](Benzoyl(4-Cl))P-Cysteamide; disulfide 1-C)
fraction fluorescent probe displaced, Screen (Acid 25): 0.32 | fraction fluorescent probe displaced, Replicate (Acid 25, replicate): 0.30
